Results published in PubChem BioAssay (NCI).
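Five concentrations, 48 hours, 96-well plates. Abbreviation: GI50, concentration required for 50% inhibition of growth. TGI marks complete inhibition of growth.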

Tests used:
Assay in all cases: NCI anticancer screen, dose series, 48 h
RXF 393 renal = test system: RXF 393 renal
UO-31 renal = test system: UO-31 renal
SNB-75 CNS = test system: SNB-75 CNS
MALME-3M melanoma = test system: MALME-3M melanoma
KM12 colon = test system: KM12 colon
UACC-62 melanoma = test system: UACC-62 melanoma
UACC-257 melanoma = test system: UACC-257 melanoma
HL-60(TB) leukemia = test system: HL-60(TB) leukemia
MDA-MB-435 = test system: MDA-MB-435
DU-145 prostate = test system: DU-145 prostate

Compound	TGI (RXF 393 renal)	TGI (UO-31 renal)	TGI (SNB-75 CNS)	TGI (MALME-3M melanoma)	TGI (KM12 colon)	TGI (UACC-62 melanoma)	TGI (UACC-257 melanoma)	TGI (HL-60(TB) leukemia)	GI50 (MDA-MB-435)	TGI (MDA-MB-435)	GI50 (RXF 393 renal)	GI50 (UO-31 renal)	GI50 (HL-60(TB) leukemia)	GI50 (SNB-75 CNS)	GI50 (MALME-3M melanoma)	GI50 (KM12 colon)	GI50 (UACC-62 melanoma)	GI50 (UACC-257 melanoma)	GI50 (DU-145 prostate)	TGI (DU-145 prostate)
O=C(CC1(O)C(=O)Nc2c(Cl)ccc(Cl)c21)c1ccc(Cl)cc1 (stereo not given)	56.8 µM	> 100 µM	64.9 µM	71.8 µM	78 µM	48.9 µM	94.7 µM	–	–	–	–	–	–	–	–	–	–	–	–	–
N#Cc1c(CC(=O)O)cc(=O)n2c1[nH]c1ccccc12	> 100 µM	> 100 µM	> 100 µM	> 100 µM	> 100 µM	–	> 100 µM	> 100 µM	–	–	–	–	–	–	–	–	–	–	–	–
CNS(=O)(=O)NNS(=O)(=O)c1ccc(C)cc1	> 100 µM	> 100 µM	–	> 100 µM	> 100 µM	> 100 µM	> 100 µM	> 100 µM	–	–	–	–	–	–	–	–	–	–	–	–
COC1=CC(=O)C(O)=C(CC2(C)C(C)CCC3(C)C2CCCC3(C)C)C1=O (stereo not given)	7.79 µM	17.2 µM	19 µM	13.4 µM	27.3 µM	5.96 µM	21.9 µM	8.53 µM	–	–	–	–	–	–	–	–	–	–	–	–
C/C(=C\c1ccccc1)C(O)C(=O)c1nc2ccc(Cl)cc2[nH]c1=O (stereo not given)	–	> 100 µM	–	> 100 µM	> 100 µM	> 100 µM	> 100 µM	> 100 µM	–	–	–	–	–	–	–	–	–	–	–	–
CC1(C)CC(=O)C(C(=O)Nc2cccs2)=C(O)C1	> 100 µM	81.7 µM	59.3 µM	> 100 µM	> 100 µM	> 100 µM	> 100 µM	57.7 µM	–	–	–	–	–	–	–	–	–	–	–	–
CN(C)c1ccc(/C=N/N=C(\C#N)[S][Sn]([Cl])([c]2ccccc2)[c]2ccccc2)cc1	2.72 µM	3.08 µM	2.36 µM	3.6 µM	3.94 µM	2.87 µM	2.95 µM	5.16 µM	1.5 µM	3.01 µM	1.38 µM	1.58 µM	0.548 µM	1.07 µM	1.74 µM	1.8 µM	1.41 µM	1.52 µM	–	–
CCCCCNC(=O)CCCCCCCCCCCNC(=O)CCCCCCCCCCN1C=CC(=CC=C2C=CC(=O)C=C2)C=C1	> 100 µM	> 100 µM	68.3 µM	> 100 µM	> 100 µM	> 100 µM	88.7 µM	8.83 µM	–	–	–	–	–	–	–	–	–	–	–	–
COc1ccc2cc3n(c(=O)c2c1)CCc1c-3cc(OC)c(OC)c1OC	–	> 100 µM	98.6 µM	> 100 µM	–	> 100 µM	> 100 µM	> 100 µM	–	–	–	–	–	–	–	–	–	–	–	–
COc1ccc(C(C)Nc2cc(OC)c(OC)c(OC)c2)cc1 (stereo not given)	20.9 µM	> 100 µM	> 100 µM	> 29.7 µM	> 100 µM	> 100 µM	> 100 µM	5.81 µM	–	–	–	–	–	–	–	–	–	–	–	–
O=C1NC(=O)N(S(=O)(=O)c2cc(C(=O)Nc3ccc(Cl)cc3)c(Cl)cc2S)S(=O)(=O)N1	18.2 µM	46.5 µM	> 100 µM	–	34.8 µM	23.6 µM	37.1 µM	–	18.5 µM	34.3 µM	0.67 µM	19.6 µM	–	38.9 µM	–	18.6 µM	6.67 µM	17.5 µM	16.5 µM	31.2 µM
O=C1Nc2ccc(Cl)cc2/C1=N/c1nc(-c2ccc(Cl)cc2)cs1	–	–	–	–	4.55 µM	4.1 µM	–	–	–	–	–	–	–	–	–	1.37 µM	1.54 µM	–	1.42 µM	2.79 µM
O=C1c2ccccc2C2(O)N(c3ccccc3)C(=S)N(c3ccccc3)C12O (stereo not given)	> 100 µM	> 100 µM	> 100 µM	> 100 µM	> 100 µM	> 100 µM	> 100 µM	–	–	–	–	–	–	–	–	–	–	–	–	–
CN(C)CCNC(=O)c1cccc2c1nc(-c1cccnc1)c1ccccc12	17.1 µM	10.8 µM	22 µM	–	46.5 µM	15.2 µM	16.1 µM	28.8 µM	–	–	–	–	–	–	–	–	–	–	–	–
O=c1c2cc(Br)ccc2nc(CNc2ccccc2)n1-c1ccccc1	44.4 µM	> 57.8 µM	> 59.5 µM	28.4 µM	> 100 µM	23.5 µM	98 µM	39.7 µM	–	–	–	–	–	–	–	–	–	–	–	–
CN1S(=O)(=O)N(C)P12(N=P(CP(=NP13(N(C)S(=O)(=O)N1C)N(C)S(=O)(=O)N3C)(c1ccccc1)c1ccccc1)(c1ccccc1)c1ccccc1)N(C)S(=O)(=O)N2C	> 100 µM	> 100 µM	> 100 µM	> 100 µM	> 100 µM	> 100 µM	> 100 µM	> 100 µM	–	–	–	–	–	–	–	–	–	–	–	–
CC(C)(C)C1CC[C@H]2c3c([nH]c4ccccc34)[C@H]3C(=O)N(c4ccc(F)cc4)C(=O)[C@H]3[C@H]2C1 (stereo not given in full)	43.9 µM	29.7 µM	23 µM	36.8 µM	27.8 µM	29.6 µM	54.2 µM	–	–	–	–	–	–	–	–	–	–	–	–	–
O=C1c2ccccc2N1C(=O)c1ccccc1[N+](=O)[O-]	–	> 100 µM	> 100 µM	> 100 µM	> 100 µM	> 100 µM	> 100 µM	–	–	> 100 µM	–	–	–	–	–	–	–	–	–	> 100 µM
N#CC1(CCCCl)CCCCC1	> 100 µM	> 100 µM	> 100 µM	> 100 µM	> 100 µM	> 100 µM	> 100 µM	> 100 µM	–	–	–	–	–	–	–	–	–	–	–	–
CC(C)CCCC(C)C1CCC2C3CC([N+](=O)[O-])=C4CC(O)CCC4(C)C3CCC12C (stereo not given)	50.9 µM	–	41.5 µM	39.2 µM	37 µM	40.3 µM	37.5 µM	60.6 µM	–	–	–	–	–	–	–	–	–	–	–	–
C#CCCCCCC(=O)N[C@H]1C=C[C@@H]2/C=C(C)/C=C/[C@@H](C)[C@H]([C@H](C)[C@H](O)[C@@H](C)NC(C)=O)OC(=O)/C=C/C=C(C)\C=C\[C@]2(C)C1	2.48 µM	8.95 µM	> 40 µM	17.9 µM	> 40 µM	9.04 µM	0.0324 µM	9.31 µM	–	–	< 0.004 µM	< 0.004 µM	0.0335 µM	0.0127 µM	0.567 µM	0.00501 µM	0.023 µM	< 0.004 µM	0.0157 µM	> 40 µM
CCOC(=O)C1C(NC(N)=O)N(Cc2ccccc2)C(=O)N1Cc1ccccc1 (stereo not given)	–	> 100 µM	> 100 µM	> 100 µM	> 100 µM	> 100 µM	> 100 µM	> 100 µM	–	–	–	–	–	–	–	–	–	–	–	–
